In US20230099264A1, “Biomarker for Predicting Prognosis of Radiotherapy for Lung Cancer” (Korea Institute of Radiological & Medical Sciences, priority 2020, published 2023):

Legend:
Type in all cases: cell-based, Human
[1] = test system: IR-treated lung cancer cell line A549; test: Cell viability of IR-treated lung cancer cells under inhibitor treatment
[2] = test system: IR-treated lung cancer cell line A549; test: Transwell invasion and migration assay of IR-treated lung cancer cells; settings: IR (10 Gy)-treated A549, transwell, 24 hours
Description: Lung cancer cells (A549) (5×10^5) were seeded in 60 mm dishes and cultured overnight, followed by IR exposure (10 Gy) using a 137 Cs radiation source (Atomic Energy of Canada, Ltd., Mississauga, ON, Canada) to obtain IR-treated lung cancer cell lines (A549 IR (10 Gy)).
In order to analyze the cell invasion of lung cancer cells by IR treatment, Matrigel-coated transwells (Corning N. Y., USA) were used, and in order to analyze cell migration, collagen-coated transwells (Corning, N.Y., USA) were used.
(§1) Lung cancer cell line A549 (control) and IR-treated lung cancer cell line A549 (IR) were placed in an upper chamber by 5×10^4 in a Matrigel-coated transwell, and treated with EGFR, Scr, and STAT3 inhibitors, respectively. Then, 10% FBS medium was put into the lower chamber, and cells passing through the transwell were stained after 24 hours to confirm cell invasion, and the results are shown in FIGS. 3C and 3D.
as §1, with “transwell” for “transwell,”, “necrostatin.” for “EGFR, Scr, and STAT3 inhibitors, respectively.”, “4A” for “3C”, “4B. […]” for “3D.”

RIP1 = test: Western blot of RIP1 expression in IR-treated A549 cells; settings: 24 hours
Description: In addition, lung cancer cell line A549 (control) and IR-treated lung cancer cell line A549 (IR) were seeded at 1×10^6 in a 60π dish and treated with EGFR inhibitor (EGFR inh), Src inhibitor (Src inh), and STAT3 inhibitor (STAT3 inh). The cells were treated by IR (IR-EGFR inh, IR-Src inh, and IR-STAT3 inh). The cells were harvested 24 hours later, and protein was extracted.
(§2) In addition, lung cancer cell line A549 (control) and IR-treated lung cancer cell line A549 (IR) were seeded at 1×10^6 in a 60π dish and treated with necrostatin. The cells were harvested 24 hours later, and protein was extracted. Then, Western blot was performed to confirm the expressions of RIP1, vimentin, MMP2, MMP9, p-EGFR, EGFR, β-action, p-Src, Src, p-STAT3, and STAT3, and the results are shown in FIGS. 4D and 4E.
In addition, lung cancer cell line A549 (control) and IR-treated lung cancer cell line A549 (IR) were seeded with 1×10^6 in a 60π dish and were treated with an NF-κB inhibitor. The cells were harvested 24 hours later, and protein was extracted. Then, Western blot was performed to confirm the expressions of RIP1, vimentin, MMP2, MMP9, p-IκBα, p-P65, p50, and p105.

[3] = test system: vimentin, MMP2, MMP9, p-EGFR, p-Src, p-STAT3; test: Western blot of EMT-related and signaling proteins in IR-treated A549 cells; settings: 24 hours
Description: In addition, lung cancer cell line A549 (control) and IR-treated lung cancer cell line A549 (IR) were seeded at 1×10^6 in a 60π dish and treated with EGFR inhibitor (EGFR inh), Src inhibitor (Src inh), and STAT3 inhibitor (STAT3 inh). The cells were treated by IR (IR-EGFR inh, IR-Src inh, and IR-STAT3 inh). The cells were harvested 24 hours later, and protein was extracted. Then, Western blot was performed to confirm the expressions of RIP1, vimentin, MMP2, MMP9, p-Src, Src, p-STAT3, STAT3, and β-action, and the results are shown in FIG. 3B (EGFR inhibitor), FIG. 3C (Src inhibitor), and FIG. 3D (STAT3 inhibitor).
as §2
In addition, the same experiment as the above experiment was performed by treating a commercially available siRNA capable of inhibiting the expression of RIP1, and the results are shown in FIGS. 5A-5D.

[4] = test system: vimentin, MMP-2/9, E-cadherin; test: Immunoblot analysis of EMT markers with or without IL-Ra under IR irradiation
Description: Immunoblot analysis of samples treated with or without IL-Ra (an antagonist of IL-1β) under IR irradiation conditions was performed, and the results are shown in FIG. 8A.

Compound | cell viability compared with lung cancer cell line not treated with radiation (control) [1] | cell invasion and cell migration [2] | RIP1 expression (RIP1) | activities/expression of vimentin, MMP2, MMP9, p-EGFR, p-Src, p-STAT3 (EMT-related factors) [3] | IR-induced increase of vimentin and MMP-2/9 expressions and decrease of E-cadherin [4]
CN1C(=O)C(Cc2c[nH]c3ccccc23)NC1=S (stereo not drawn) [necrostatin, Necrostatin-1] | almost similar | reduced | decreased expression | decreased activities | 
IL-Ra: an antagonist of IL-1β |  | almost completely blocked |  |  | inhibiting this action
